Key:
[1] = molecular target: T1, aldose reductase (Homo sapiens, UniProt P15121); test: aldose reductase activity, partially purified preparation from human placenta; type: biochemical; conditions: 10^-6 M
T1 construct: partially purified aldose reductase preparation from human placenta; from tissue; host or cells: human placenta
Description: The effect of the thiazolidine derivative (I) on aldose reductase activity was assayed after the method described in S. Haymen et al., Journal of Biological Chemistry, Vol. 240, 877 (1965) and Jin H. Kinoshita et al., Metabolism, Vol. 28, Nr. 4, Suppl 1, 462 (1979), etc. The enzyme used in the assay was a partially purified aldose reductase preparation from human placenta. The results for the respective compounds were expressed as % inhibition at the concentration of 10^-6 mole and are shown in Table 2.

[2] = system: rat lens; test: swelling inhibitory effect in rat lens culture assay; type: cell-based; conditions: 10^-6 M
Description: The swelling inhibitory effect of each compound in a rat lens culture assay was evaluated by the method described in H. Obazawa et al., Invest. Ophthalmol Vol. 13, Nr. 3, 204 (1974).
The result for each compound was expressed as the % inhibition of swelling into the lens at the concentration of 10^-6 mole and are shown in Table 3.

[3] = single-dose lethality test in mice; type: in vivo; conditions: 2500 mg/kg once; groups of 5 mice
Description: In a test in mice (each group consisting of 5 mice), when the compounds (I), for example, 5-(3-ethoxy-4-pentyloxyphenyl)thiazolidine-2,4-dione and 5-(3-ethoxy-4-isopentyloxyphenyl)thiazolidine-2,4-dione were administered at a dose of 2500 mg/kg once, no mouse died.

SMILES | inhibition at 1 µM [1] [%] | inhibition at 1 µM [2] [%] | death of mice [3]
Cc1ccc(C2SC(=O)NC2=O)cc1C (stereo not drawn) [Example 5, 5-(3,4-dimethylphenyl)thiazolidine-2,4-dione] | 35.8 |  | 
CCCCCCOc1ccc(C2SC(=O)NC2=O)cc1OC (stereo not drawn) [Example 10 - No. 18] | 32.2 |  | 
CCCCCOc1ccc(C2SC(=O)NC2=O)cc1OC (stereo not drawn) [Example 10 - No. 17] | 40.6 |  | 
CC(=O)Oc1ccc(C2SC(=O)NC2=O)cc1OC(C)=O (stereo not drawn) [Example 10 - No. 5] | 76.9 |  | 
CCCCCOc1cc(C2SC(=O)NC2=O)ccc1OC (stereo not drawn) [Example 10 - No. 20] | 30 |  | 
COc1cc(C2SC(=O)NC2=O)ccc1OCCCC(C)C (stereo not drawn) [Example 10 - No. 19] | 68.1 |  | 
CCOc1cc(C2SC(=O)NC2=O)ccc1OCCC(C)C (stereo not drawn) [Example 10 - No. 13] | 34 | 25.3 | 
CCCCCOc1ccc(C2SC(=O)NC2=O)cc1OCC (stereo not drawn) [Example 4, 5-(3-ethoxy-4-pentyloxyphenyl)-thiazolidine-2,4-dione] | 34.6 | 44.6 | no mouse died
CCCOc1ccc(C2SC(=O)NC2=O)cc1OCCC (stereo not drawn) [Example 10 - No. 10] | 53.5 |  | 
O=C1NC(=O)C(c2ccc3c(c2)OCO3)S1 (stereo not drawn) [Example 10 - No. 7] | 47.4 |  | 
CCOc1cc(C2SC(=O)NC2=O)ccc1OCCC(C)C (stereo not drawn) [5-(3-ethoxy-4-isopentyloxyphenyl)thiazolidine-2,4-dione] |  |  | no mouse died
CCCCOc1ccc(C2SC(=O)NC2=O)cc1OCCCC (stereo not drawn) [Example 10 - No. 8] | 51.7 |  | 

More lines, main results first:

inhibition at 1 µM [1] [%] | SMILES | inhibition at 1 µM [2] [%] | death of mice [3]
55.2 | CCCCOc1ccc(C2SC(=O)NC2=O)cc1OCC (stereo not drawn) [Example 10 - No. 9] |  | 
57 | CCOc1ccc(C2SC(=O)NC2=O)cc1OCC (stereo not drawn) [Example 10 - No. 2] | 37 | 
57.1 | COc1ccc(C2SC(=O)NC2=O)cc1OC (stereo not drawn) [Example 10 - No. 1] | 30.3 | 
51.6 | CCOc1cc(C2SC(=O)NC2=O)ccc1O (stereo not drawn) [Example 10 - No. 3] |  | 
28 | CCOc1cc(C2SC(=O)NC2=O)ccc1OCC(C)(C)C (stereo not drawn) [Example 10 - No. 14] | 57.2 | 
41.8 | O=C1NC(=O)C(c2ccc(O)c(O)c2)S1 (stereo not drawn) [Example 10 - No. 6] |  | 
37.7 | CCCCCCOc1ccc(C2SC(=O)NC2=O)cc1OCC (stereo not drawn) [Example 10 - No. 12] | 33 | 
38.7 | CCCCOc1ccc(C2SC(=O)NC2=O)cc1OC (stereo not drawn) [Example 10 - No. 16] |  | 
60.6 | CCOc1cc(C2SC(=O)NC2=O)ccc1OCCCC(C)C (stereo not drawn) [Example 10 - No. 15] |  | 
59 | CCOc1cc(C2SC(=O)NC2=O)ccc1OC(C)=O (stereo not drawn) [Example 10 - No. 4] | 23.7 | 

From US4387101A, “Thiazolidine derivatives and their use” (Takeda Chemical Industries, Ltd., priority 1980, dated 1983)
